{"source": "patent US9005641B2", "about": "“Compositions and methods for preventing or reducing resistance of insects to insecticides” (Rothamsted Research Limited, priority 2002, dated 2015)", "key": {"[1]": {"system": "pyrethroid-resistant H. armigera larvae", "experiment": "Synergism studies: PBO pre-treatment before pyrethroid, larval mortality", "procedure": "These involved a comparison of esterase inhibition (expressed as % of control, ± standard deviation) incurred by H. armigera larvae over time following topical application of 1 μl PBO (1%), and the effect on mortality of pyrethroid-resistant larvae when exposed to increasing PBO (1 μl, 1% PBO/larva) pre-treatment intervals before fenvalerate (1 μl, 0.125% fenvalerate/larva, FIG. 3) and zeta-cypermethrin (1 μl, 0.01% zeta-cypermethrin/larva, FIG. 4) exposure."}, "[2]": {"system": "pyrethroid resistant second instar H. armigera larvae", "experiment": "Field trial on cotton, night sprays", "assay_type": "in vivo, Helicoverpa armigera", "conditions": "one day after treatment; lambdacyhalothrin 15 g a.i./ha, PBO 320 g a.i./ha; strain 20 fold resistant", "description": "In the lack of H. armigera pressure on cotton, pyrethroid resistant second instar H. armigera larvae, which were the progeny a field strain originating from Queensland, were placed on cotton plant. The strain was 20 fold resistant to lambdacyhalothrin.\nInsecticides were mixed with water.\nThe trial was conducted on replicated, 1 row×2 m plots. Each plot contained from 13-17 mature cotton plants. There was an unsprayed buffer of two rows between each plot. Just prior to sunset, ten second instar H. armigera larvae were placed onto the terminals of each plant in the test plots and the plots sprayed. H. armigera numbers per plant were assessed one day after treatment. Temperature ranged from 24-26° C. The mean percentage mortality and standard deviation were calculated for each treatment."}}, "data": [{"smiles": "CC1(C)C(C=C(Cl)Cl)C1C(=O)OC(C#N)c1cccc(Oc2ccccc2)c1", "note": "(racemic) [zeta-cypermethrin, (S)-cyano(3-phenoxyphenyl)-methyl(±)-cis-trans-3-(2,2,-dichloroethenyl)-2,2-dimethylcyclo-propanecarboxylate]", "values": [{"measurement": "mortality (plateau)", "setting": "[1]; 1 μl 0.01% zeta-cypermethrin/larva, PBO (1 μl, 1%) pre-treatment interval 4-10 hrs", "result": 100, "unit": "%"}]}, {"smiles": "CC(C)C(C(=O)OC(C#N)c1cccc(Oc2ccccc2)c1)c1ccc(Cl)cc1", "note": "(stereo not drawn) [fenvalerate, (R—(R*,S*)-4-chloro-α(1-methylethyl)benzeneacetic acid, cyano (3-phenoxyphenyl)methyl ester)]", "values": [{"measurement": "mortality (plateau)", "setting": "[1]; 1 μl 0.125% fenvalerate/larva, PBO (1 μl, 1%) pre-treatment interval 4-5 hrs", "result": 100, "unit": "%"}]}, {"smiles": "CC1(C)[C@H](C(=O)O[C@H](C#N)c2cccc(Oc3ccccc3)c2)[C@@H]1/C=C(\\Cl)C(F)(F)F", "note": "[lambdacyhalothrin]", "values": [{"measurement": "mortality / control of H. armigera", "setting": "[2]", "result": "~40", "unit": "%"}]}]}
